Source: US9927437B2, “Treating neurodegenerative disease” (THE BRIGHAM AND WOMEN'S HOSPITAL, INC., priority 2013, dated 2018)

Test system: ccl2 promoter
Experiment: ChIP of NF-κB and IRF-1 at the ccl2 promoter in primary astrocytes
Assay type: cell-based, mouse
Excerpt: FIGS. 4a-m. B4GALT6 regulates ccl2 transcriptional activity in astrocytes. (a) Murine ccl2 promoter. (b) Luciferase activity in 293T cells transfected with the ccl2 luciferase reporter plus one of the following constructs encoding IRF-1, p65 or an empty control vector (Empty). Results are relative to secreted alkaline phosphatase activity, presented as fold induction from empty vector. Data from three independent experiments, statistical analysis by Student's t-test. (c) ChIP analysis of the interaction of NF-κB, and IRF-1 with the ccl2 promoter in primary cultured astrocytes, pre-treated with PDMP and LacCer and activated with LPS/IFNγ (as in FIG. 3), 2 hours following LPS/IFNγ induction. (d-h) Recruitment of inflammatory monocytes (defined either as of CD11b^+ Ly6C^high or CD11b^+CD45^high cells) to the CNS of EAE NOD mice treated with PDMP or vehicle, as in (FIG. 1k), analyzed by flow cytometry and presented as cell frequency (e, g) and total cell numbers (f, h). Representative data of three independent experiments. […] (i) The frequency and number of CD11b^+ Ly6C^high monocytes as determined in the CNS 10 days after the i.c.v. injection of astrocytes-specific shRNA lentivirus as in (FIG. 3j). […] (j) monocytes were pre-treated for 1 h with PDMP, LacCer, both (LacCer+PDMP), or vehicle, and monocytes chemotaxis was measured using a transwell chamber system. […]

Row | Molecule | recruitment of NF-κB and IRF-1 to the ccl2 promoter (astrocytes activated with LPS/IFNγ, 2 hours) | recruitment of NF-κB and IRF-1 to the ccl2 promoter, LacCer added to PDMP (LacCer + PDMP, LPS/IFNγ)
1 | CCCCCCCCCC(=O)N[C@H](CN1CCOCC1)[C@H](O)c1ccccc1 [PDMP, D-threo-1-phenyl-2-decanoylamino-3-morpholino-1-propanol] | arrested | 
2 | lactosylceramide [LacCer] |  | abrogated
